Tests used:
[1] = molecular target: Sodium-dependent noradrenaline transporter (Homo sapiens, UniProt P23975); test: The compound was tested in vitro for binding affinity for the norepinephrine transporter (NET) using competitive binding assay.
[2] = molecular target: Sodium-dependent serotonin transporter (Homo sapiens, UniProt P31645); test: The compound was tested in vitro for binding affinity for the serotonin transporter (5-HTT) using competitive binding assay.
[3] = molecular target: T1, Sodium-dependent dopamine transporter (Homo sapiens, UniProt Q01959); test: The compound was tested in vitro for high binding affinity for the Dopamine transporter (DAT) using competitive binding assay.
[4] = molecular target: T1, Sodium-dependent dopamine transporter; test: The compound was tested in vitro for low binding affinity for the Dopamine transporter (DAT) using competitive binding assay.

Chain of Sodium-dependent noradrenaline transporter (P23975 whole entry): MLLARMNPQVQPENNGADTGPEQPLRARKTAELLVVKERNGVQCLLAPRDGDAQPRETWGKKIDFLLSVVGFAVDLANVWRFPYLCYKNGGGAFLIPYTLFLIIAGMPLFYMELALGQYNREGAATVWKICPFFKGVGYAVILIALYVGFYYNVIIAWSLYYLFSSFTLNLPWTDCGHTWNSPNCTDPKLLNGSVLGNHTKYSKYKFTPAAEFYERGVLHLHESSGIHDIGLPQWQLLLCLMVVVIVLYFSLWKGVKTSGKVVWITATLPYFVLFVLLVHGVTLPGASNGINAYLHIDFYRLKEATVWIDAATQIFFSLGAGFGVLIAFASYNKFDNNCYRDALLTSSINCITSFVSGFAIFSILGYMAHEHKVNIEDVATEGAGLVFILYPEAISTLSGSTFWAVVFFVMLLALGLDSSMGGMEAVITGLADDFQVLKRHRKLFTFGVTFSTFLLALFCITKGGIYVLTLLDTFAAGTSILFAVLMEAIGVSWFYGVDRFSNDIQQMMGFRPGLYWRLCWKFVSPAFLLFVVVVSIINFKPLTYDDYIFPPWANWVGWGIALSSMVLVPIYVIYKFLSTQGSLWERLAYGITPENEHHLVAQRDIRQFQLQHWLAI
Chain of Sodium-dependent serotonin transporter (P31645 whole entry): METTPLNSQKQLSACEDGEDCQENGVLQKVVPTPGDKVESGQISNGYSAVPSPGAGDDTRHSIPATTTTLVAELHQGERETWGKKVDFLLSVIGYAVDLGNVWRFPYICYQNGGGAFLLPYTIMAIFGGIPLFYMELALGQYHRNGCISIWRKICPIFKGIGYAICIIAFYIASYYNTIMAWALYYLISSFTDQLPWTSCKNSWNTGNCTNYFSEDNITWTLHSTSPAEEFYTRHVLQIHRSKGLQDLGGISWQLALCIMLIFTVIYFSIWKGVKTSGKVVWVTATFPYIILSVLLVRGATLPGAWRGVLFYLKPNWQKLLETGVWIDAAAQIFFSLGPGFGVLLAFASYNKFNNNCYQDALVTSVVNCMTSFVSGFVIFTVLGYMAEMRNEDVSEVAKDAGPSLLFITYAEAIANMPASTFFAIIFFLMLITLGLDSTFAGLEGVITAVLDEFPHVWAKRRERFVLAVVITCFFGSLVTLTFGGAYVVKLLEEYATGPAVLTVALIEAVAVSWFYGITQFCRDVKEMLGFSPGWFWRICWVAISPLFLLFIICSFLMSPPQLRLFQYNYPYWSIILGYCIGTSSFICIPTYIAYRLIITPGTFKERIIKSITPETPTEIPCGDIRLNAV
T1 sequence (Q01959 whole entry): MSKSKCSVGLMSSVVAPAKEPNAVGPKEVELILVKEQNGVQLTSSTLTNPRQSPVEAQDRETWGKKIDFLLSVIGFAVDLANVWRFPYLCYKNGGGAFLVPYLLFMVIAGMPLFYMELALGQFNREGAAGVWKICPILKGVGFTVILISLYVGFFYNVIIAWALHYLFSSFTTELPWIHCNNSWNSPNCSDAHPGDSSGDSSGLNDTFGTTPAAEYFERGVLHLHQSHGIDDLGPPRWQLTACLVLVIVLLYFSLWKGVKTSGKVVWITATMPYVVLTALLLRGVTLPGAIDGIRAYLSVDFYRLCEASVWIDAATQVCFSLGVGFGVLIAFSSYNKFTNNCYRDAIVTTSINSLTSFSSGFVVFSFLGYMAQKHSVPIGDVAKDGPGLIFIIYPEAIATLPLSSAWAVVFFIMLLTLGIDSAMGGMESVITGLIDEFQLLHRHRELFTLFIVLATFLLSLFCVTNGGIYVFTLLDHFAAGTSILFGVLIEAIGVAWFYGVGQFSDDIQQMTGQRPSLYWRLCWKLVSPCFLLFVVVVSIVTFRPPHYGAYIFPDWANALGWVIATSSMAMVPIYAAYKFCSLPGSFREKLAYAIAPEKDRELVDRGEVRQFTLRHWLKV

Row | SMILES | IC50 [1] [µM] | IC50 [2] [µM] | IC50 [3] [µM] | IC50 [4] [µM]
1 | COC(=O)[C@H]1[C@@H](c2ccc(F)cc2)C[C@H]2CC[C@H]1N2C | 0.834 | 0.759 | – | –
2 | CSCCSCCC(=O)OC[C@@H]1C2CCC(C[C@@H]1c1ccc(F)cc1)N2C (stereo partly specified) | 0.0163 | 0.0285 | 0.000227 | 0.00569

From ChEMBL document CHEMBL1131616, “TROTEC-1: a new high-affinity ligand for labeling of the dopamine transporter” (J Med Chem, 1998)
